Data: article PMC6650083, “Structure and functional analysis of a bacterial adhesin sugar-binding domain” (PLoS ONE, 2019)
“And” between values parts separate entries of the source, which are not always exact repeats. Equal entries are not always repeated. Where two headings read alike, the source gives them in different places.

Experiments:
MhPA14 [1] = target: T1, MhPA14 (Marinobacter hydrocarbonoclasticus, UniProt A0ABF7PGZ6); assay: Superdex 200 column affinity test (gradient elution of bound MhPA14); type: binding; conditions: increasing gradient, 0-55 mM glucose or 0-5 mM EDTA over 45 min
T1 sequence (A0ABF7PGZ6 entry or part of it): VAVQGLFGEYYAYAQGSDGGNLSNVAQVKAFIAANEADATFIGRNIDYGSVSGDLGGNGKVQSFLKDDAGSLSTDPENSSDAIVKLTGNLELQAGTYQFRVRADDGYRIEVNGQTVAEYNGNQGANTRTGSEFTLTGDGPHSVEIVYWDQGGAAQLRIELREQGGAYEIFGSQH
Method: A Superdex 200 10/300 GL column (GE Healthcare) was used to probe the resin-binding ability of MhPA14. Approximately 1 mg of MhPA14 was loaded onto the column and washed with 3 column volumes of Protein Buffer. An increasing gradient of either glucose or EDTA was then implemented, rising from 0 mM– 55 mM glucose or 0 mM– 5 mM EDTA over 45 min.

MhPA14 [2] = target: T1, MhPA14; assay: Dextran-based (Superdex 200 resin) competitive binding assay
Method: Superdex 200 (S200) resin stored in 20% ethanol was washed twice in Protein Buffer using 6600 xg centrifugation. A millilitre of 1 mg/mL MhPA14 fused N-terminally to GFP, named GFP_MhPA14 (S1 Fig), was incubated with 300 μL of equilibrated S200 resin. Following 30 sec of vortexing and 2 min of incubation with slight mixing (nutation), the solution was centrifuged at 6600 xg for 2.5 min and the supernatant discarded. Protein buffer (1 mL) was added to the tube, and the process of mixing followed by centrifugation was repeated. The A280 of the resulting supernatant was taken to account for the minimal amount of non-sugar-related protein disassociation from the resin, and was used as a baseline reading. The supernatant was then returned into its original resin mixture tube with the addition of 1.67 μmoles (3 μL of 555 mM) of saccharide. […] After reading the A280 of the supernatant, the above process was repeated for seven tandem saccharide additions of 1.67 μmoles, as well as a final 5-μmole addition. […]
Attempts to solve MhPA14 structures with other sugars bounds–whether by soaking or co-crystallization–were fruitless. […] The amount of GFP-tagged MhPA14 released from the resin upon each sugar addition was measured using absorbance at 280 nm, which was plotted against concentration of free sugar to produce semi-quantitative binding curves (Fig 8). […]

MhPA14 [3] = target: T1, MhPA14; assay: Isothermal titration calorimetry (ITC); type: binding; conditions: 30°C; for Kd: 400 μM MhPA14, 8 mM sugar
Method: Isothermal calorimetric titration (ITC) measurements were performed using a MicroCal VP-ITC calorimeter (Malvern) set at 30°C. […] Sugars were added from the computer-controlled rotating syringe (400 RPM) at 5-min intervals into the MhPA14 solution for a total of 50 injections. The data were analyzed by Origin software Version 5.0 (Malvern).

EpA1 = target: EpA1; set-up: method as in PMID 22349222; conditions: EpA1 and its sugar of choice; cited from earlier work
MhPA14 [4] = target: T1, MhPA14; assay: Fungal, bacterial and plant polysaccharide array set 2 (Imperial College) probed with GFP_MhPA14; type: binding; conditions: 50 μg/mL GFP_MhPA14, anti-GFP antibody detection, average of duplicates
Method: The second array was screened at the Carbohydrate Microarray Facility (Glycosciences Laboratory, Imperial College). GFP_MhPA14 (50 μg/mL) was exposed to the ‘Fungal, bacterial and plant polysaccharide array set 2’, which contained duplicates of 20 saccharide probes extracted from a variety of organisms. An Alexa Fluora 647-tagged anti-GFP antibody was used for detection, and the duplicates were averaged to give the final RFU values.

[5] = fucose and glucose are averages of triplicate runs
[6] = fucose and glucose are averages of triplicate runs, read-out: Kd

Molecule | N (calculated stoichiometry) (MhPA14 [3]; [5]) | Affinity for MhPA14 on polysaccharide array (MhPA14 [4]) | Kd (MhPA14 [3]; [6]) | further results
O=C(O)CN(CCN(CC(=O)O)CC(=O)O)CC(=O)O [EDTA] | – | – | – | Concentration at which MhPA14 eluted from Superdex S200 column (MhPA14 [1]): 3.5 mM
CC(=O)N[C@@H]1[C@@H](O)[C@@H](O)[C@@H](CO)O[C@@H]1O [N-acetylgalactosamine] | – | – | – | Kdapp (apparent dissociation constant) (MhPA14 [2]; GFP_MhPA14 displaced from Superdex 200 resin by free sugar, A280 readout, triplicate, semi-quantitative): Non-binding; Binding in competitive binding assay (MhPA14 [2]; GFP_MhPA14 on Superdex 200 resin): unable to bind MhPA14 at all
O=C[C@H](O)[C@@H](O)[C@@H](O)[C@H](O)CO [Galactose] | 1.00 | – | – | Kd (MhPA14 [3]; Kd): > 1000 µM; Kd (MhPA14 [3]; Kd, fucose and glucose are averages of triplicate runs): 1540 µM; Kd (EpA1): 115 µM
curdlan | – | almost no affinity | – | –
C[C@H](O)[C@@H](O)[C@@H](O)[C@H](O)C=O [Fucose, 6-deoxy-L-galactose] | 0.98 ± 0.03 | – | 58 µM and 58.2 µM | –
O=CC[C@@H](O)[C@H](O)[C@H](O)CO [2-deoxy-D-glucose] | 0.86 | – | 228 µM | –
OC[C@H]1OC(O)[C@H](O)[C@@H](O)[C@@H]1O (stereo partly drawn) [Glucose, glucose] | 1.01 ± 0.14 | – | 137 µM | Concentration at which MhPA14 eluted from Superdex S200 column (MhPA14 [1]): 25 mM
pullulan | – | modest affinities | – | –
dextran | – | modest affinities | – | –
lentinan | – | strongest affinity | – | –
